# Legend:
# [1] = target: soluble human BACE1 catalytic domain (Homo sapiens (Human), UniProt P56817); assay: BACE1 HTRF FRET Assay; format: biochemical; details: for Ki: Ki calculated from IC50 using the Cheng-Prusoff equation; for inhibition at 10 µM: read-out: BACE1 % Inh. at 10 μM
# Description: A homogeneous time-resolved FRET assay can be used to determine IC50 values for inhibitors of the soluble human BACE1 catalytic domain. This assay monitors the increase of 620 nm fluorescence that resulted from BACE1 cleavage of an APPswedish APP^swe mutant peptide FRET substrate (QSY7-[…]-Europium-amide). This substrate contains an N-terminal QSY7 moiety that serves as a quencher of the C-terminal Europium fluorophore (620 nm Em). In the absence of enzyme activity, 620 nm fluorescence is low in the assay and increased linearly over 3 hours in the presence of uninhibited BACE1 enzyme Inhibition of BACE1 cleavage of the QSY7-APP^swe-Eu substrate by inhibitors is manifested as a suppression of 620 nm fluorescence.
# Reactions are initiated by addition of 10 μl of 600 nM QSY7-APP^swe-Eu substrate (200 nM final) to give a final reaction volume of 30 μl in a 384 well Nunc HTRF plate. The reactions are incubated at 30° C. for 1.5 hours. The 620 nm fluorescence is then read on a Rubystar HTRF plate reader (BMG Labtechnologies) using a 50 millisecond delay followed by a 400 millisecond acquisition time window Inhibitor IC50 values are derived from non-linear regression analysis of concentration response curves.
# [2] = target: purified human autoBACE-2 (Homo sapiens (Human), UniProt Q9Y5Z0); assay: BACE-2 Assay (BACE-HTRF assay); format: biochemical; details: Ki calculated from IC50 using the Cheng-Prusoff equation; read-out: BACE2 Ki
# Method: Inhibitor IC50s at purified human autoBACE-2 are determined in a time-resolved endpoint proteolysis assay that measures hydrolysis of the QSY7-[…]-Eu-amide FRET peptide substrate (BACE-HTRF assay). […] DMSO is present at 5% final concentration in the assay. Following laser excitation of sample wells at 320 nm, the fluorescence signal at 620 nm is collected for 400 ms following a 50 μs delay on a RUBYstar HTRF plate reader (BMG Labtechnologies). Raw RFU data is normalized to maximum (1.0 nM BACE/DMSO) and minimum (no enzyme/DMSO) RFU values. […] The Ki values are calculated from the IC50 using the Cheng-Prusoff equation.
# Sequence of purified human autoBACE-2 (Q9Y5Z0 63-473 limits assumed): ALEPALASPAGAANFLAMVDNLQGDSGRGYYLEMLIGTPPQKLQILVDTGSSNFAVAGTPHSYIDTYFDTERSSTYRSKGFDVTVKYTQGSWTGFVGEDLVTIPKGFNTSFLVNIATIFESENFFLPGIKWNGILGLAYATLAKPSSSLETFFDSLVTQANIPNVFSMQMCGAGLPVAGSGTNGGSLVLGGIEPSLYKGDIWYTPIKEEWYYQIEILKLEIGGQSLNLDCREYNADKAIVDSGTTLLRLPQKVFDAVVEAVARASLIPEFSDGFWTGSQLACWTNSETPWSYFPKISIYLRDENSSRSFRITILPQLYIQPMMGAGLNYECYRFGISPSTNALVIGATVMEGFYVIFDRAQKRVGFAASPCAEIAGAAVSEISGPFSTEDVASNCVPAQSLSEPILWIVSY
# Sequence of soluble human BACE1 catalytic domain (P56817 75-416): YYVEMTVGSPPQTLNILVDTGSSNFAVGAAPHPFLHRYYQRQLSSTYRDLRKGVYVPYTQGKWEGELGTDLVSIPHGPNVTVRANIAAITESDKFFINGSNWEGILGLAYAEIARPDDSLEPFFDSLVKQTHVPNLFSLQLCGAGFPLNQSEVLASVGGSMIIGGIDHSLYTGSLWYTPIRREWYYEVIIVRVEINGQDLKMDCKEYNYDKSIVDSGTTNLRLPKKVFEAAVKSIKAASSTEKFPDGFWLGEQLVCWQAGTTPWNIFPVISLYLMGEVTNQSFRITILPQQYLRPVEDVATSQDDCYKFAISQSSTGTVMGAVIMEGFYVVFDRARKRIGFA
Ki [1],Ki [2],inhibition at 10 µM [1],inhibition at 1 µM ([1]; read-out: BACE1 % Inh. at 1 μM),SMILES
56.7 nM,2.8 nM,,,C[C@@]1(c2sc(-c3cncc(-c4ncco4)c3)cc2Cl)CS(=O)(=O)[C@]2(CCOC2)C(=N)N1 [Example 62h]
428 nM,< 20 nM,,,C[C@@]1(c2sc(-c3ccnc(-c4ccsc4)c3)cc2Cl)CS(=O)(=O)[C@@]2(CCOC2)C(=N)N1 [Example 63n]
17 nM,< 50 nM,,,C[C@@]1(c2cc(NC(=O)c3ccc(C(F)(F)F)cn3)ccc2F)CS(=O)(=O)[C@]2(CCOC2)C(=N)N1 [Example 62d]
30 nM,< 20 nM,,,Cc1cccc(NC(=O)c2cc(Cl)c([C@]3(C)CS(=O)(=O)C4(CC4)C(=N)N3)s2)n1 [Example 79d]
17 nM,4 nM,,,C[C@@]1(c2sc(C(=O)Nc3cccc(Cl)n3)cc2Cl)CS(=O)(=O)C2(CC2)C(=N)N1 [Example 79b]
24.2 nM,< 20 nM,,,COc1ccc(C(=O)Nc2ccc(F)c([C@]3(C)CS(=O)(=O)[C@@]4(CCOC4)C(=N)N3)c2)nc1 [Example 63a]
107 nM,< 20 nM,,,C[C@@]1(c2sc(-c3cncc(-c4ncco4)c3)cc2Cl)CS(=O)(=O)[C@@]2(CCOC2)C(=N)N1 [Example 63h]
313 nM,< 20 nM,,,C[C@@]1(c2sc(-c3ccnc(-c4ccccc4)c3)cc2Cl)CS(=O)(=O)[C@]2(CCOC2)C(=N)N1 [Example 62n]
165 nM,< 20 nM,,,CC(C)(C)C#Cc1cc(Cl)c([C@]2(C)CS(=O)(=O)C3(CCC3)C(=N)N2)s1 [Example 77a]
82 nM,,,,C[C@@]1(c2cc(NC(=O)c3ccc(Cl)cc3)ccc2F)CS(=O)(=O)[C@]2(CCOC2)C(=N)N1 [Example 81m]
2080 nM,,,,C[C@@]1(c2cc(NC(=O)C3CCC3)ccc2F)CS(=O)(=O)[C@]2(CCOC2)C(=N)N1 [Example 81f]
,,58%,,C[C@@]1(c2cc(NC(=O)c3ccc(F)cc3F)ccc2F)CS(=O)(=O)[C@]2(CCOC2)C(=N)N1 [Example 81v]
4150 nM,,,,CCOCC(=O)Nc1ccc(F)c([C@]2(C)CS(=O)(=O)[C@]3(CCOC3)C(=N)N2)c1 [Example 81a]
3690 nM,,,,C[C@@]1(c2sc(-c3cncc(N4CCOCC4)c3)cc2Cl)CS(=O)(=O)[C@@]2(CCOC2)C(=N)N1 [Example 63j]
1660 nM,,,,C[C@@]1(c2sc(-c3cncc(N4CCOCC4)c3)cc2Cl)CS(=O)(=O)[C@]2(CCOC2)C(=N)N1 [Example 62i]
121 nM,,,,C[C@@]1(c2sc(C(=O)NCc3ccsn3)cc2Cl)CS(=O)(=O)C2(CCCCC2)C(=N)N1 [Example 80k]
6050 nM,,,,Cc1cc2cccc(NC(=O)c3cc(Cl)c([C@]4(C)CS(=O)(=O)C5(CCCCC5)C(=N)N4)s3)c2o1 [Example 80i]

# The next lines start with the compound.
SMILES,Ki [1],Ki [2],inhibition at 10 µM [1],inhibition at 1 µM ([1]; read-out: BACE1 % Inh. at 1 μM)
C[C@@]1(c2sc(-c3cncc(C#N)c3)cc2Cl)CS(=O)(=O)C2(CC2)C(=N)N1 [Example 65],108 nM,< 50 nM,,
COc1cccc2cc(-c3cc(Cl)c([C@]4(C)CS(=O)(=O)C5(CCC5)C(=N)N4)s3)[nH]c12 [Example 58],7.7 nM,1 nM,,
C[C@@]1(c2sc(Br)cc2Cl)CS(=O)(=O)C2(CCCC2)C(=N)N1,447 nM,134 nM,,
C[C@@]1(c2cc(NC(=O)c3ccc(F)cn3)ccc2F)CS(=O)(=O)C2(CC2)C(=N)N1 [Example 3],5.5 nM,0.9 nM,,
C[C@@]1(c2cc(NC(=O)c3ccc(C(F)(F)F)cn3)ccc2F)CS(=O)(=O)C2(CCOCC2)C(=N)N1 [Example 34],19.8 nM,< 50 nM,,
C[C@@]1(c2cc(NC(=O)c3ccc(F)cn3)ccc2F)CS(=O)(=O)C2(CC(O)C2)C(=N)N1 (stereo partly drawn) [Example 75],12.5 nM,1.7 nM,,
C[C@@]1(c2cc(NC(=O)c3ccc(Cl)cn3)ccc2F)CS(=O)(=O)[C@]2(CCOC2)C(=N)N1 [Example 62c],8.1 nM,1.8 nM,,
C[C@@]1(c2cc(N)ccc2F)CS(=O)(=O)C2(CC2)C(=N)N1,4900 nM,1860 nM,,
C[C@@]1(c2cc(NC(=O)c3cnsn3)ccc2F)CS(=O)(=O)C2(CCCC2)C(=N)N1 [Example 23],108 nM,3.1 nM,,
C[C@@]1(c2cc([N+](=O)[O-])ccc2F)CS(=O)(=O)C2(CCC2)C(=N)N1,3630 nM,3200 nM,,
C[C@@]1(c2cc(NC(=O)c3ccc(C#N)cn3)ccc2F)CS(=O)(=O)C2(CCCCC2)C(=N)N1 [Example 28],10.6 nM,< 20 nM,,
C[C@@]1(c2cc(NC(=O)c3ncc(F)cc3F)ccc2F)CS(=O)(=O)C2(CC2)C(=N)N1 [Example 4],5 nM,0.5 nM,,
C[C@@]1(c2cc(N)ccc2F)CS(=O)(=O)C2(CCCCC2)C(=N)N1,,2800 nM,49%,
C[C@@]1(c2cc([N+](=O)[O-])ccc2F)CS(=O)(=O)[C@@]2(CCOC2)C(=N)N1,6120 nM,2670 nM,,
C[C@@]1(c2cc(NC(=O)c3ccc(Cl)cn3)ccc2F)CS(=O)(=O)C2(CCOCC2)C(=N)N1 [Example 33],6.1 nM,1.6 nM,,
C[C@@]1(c2cc(NC(=O)c3cn4ccsc4n3)ccc2F)CS(=O)(=O)C2(CCCC2)C(=N)N1 [Example 20],82 nM,< 20 nM,,
C[C@@]1(c2cc(NC(=O)c3ccc(C(F)(F)F)cn3)ccc2F)CS(=O)(=O)C2(CCCC2)C(=N)N1 [Example 14],2.2 nM,2.1 nM,,
Cc1nc(C(=O)Nc2ccc(F)c([C@]3(C)CS(=O)(=O)C4(CCCC4)C(=N)N3)c2)no1 [Example 21],13.9 nM,1.3 nM,,
C[C@@]1(c2cc(NC(=O)c3ccn(C(F)F)n3)ccc2F)CS(=O)(=O)C2(CCCC2)C(=N)N1 [Example 22],12.7 nM,4.3 nM,,
COc1ccc(C(=O)Nc2ccc(F)c([C@]3(C)CS(=O)(=O)C4(CCCCC4)C(=N)N3)c2)nc1 [Example 26],37 nM,< 20 nM,,

SMILES,Ki [1],Ki [2],inhibition at 10 µM [1],inhibition at 1 µM ([1]; read-out: BACE1 % Inh. at 1 μM)
C[C@@]1(c2cc(N)ccc2F)CS(=O)(=O)[C@]2(CCOC2)C(=N)N1,,5110 nM,45%,
COc1cnc(C(=O)Nc2ccc(F)c([C@]3(C)CS(=O)(=O)C4(CC4)C(=N)N3)c2)cn1 [Example 2],4.2 nM,< 20 nM,,
C[C@@]1(c2cc(NC(=O)c3ccc(F)cn3)ccc2F)CS(=O)(=O)C2(CCCC2)C(=N)N1 [Example 13],3.1 nM,0.3 nM,,
C[C@@]1(c2sc(-c3cncc(C#N)c3)cc2Cl)CS(=O)(=O)C2(CCCC2)C(=N)N1 [Example 42],18.3 nM,3.4 nM,,
C[C@@]1(c2sc(C#CCc3cc(F)c(F)c(F)c3)cc2Cl)CS(=O)(=O)C2(CCC2)C(=N)N1 [Example 78],,< 20 nM,17%,
C[C@@]1(c2cc(N)ccc2F)CS(=O)(=O)C2(CCC2)C(=N)N1,,3970 nM,54%,
C[C@@]1(c2cc(NC(=O)c3ccc(Cl)cn3)ccc2F)CS(=O)(=O)C2(CC2)C(=N)N1 [Example 1],1.6 nM,0.4 nM,,
C[C@@]1(c2sc(-c3cncc(C#N)c3)cc2Cl)CS(=O)(=O)C2(CCCCC2)C(=N)N1 [Example 46],114 nM,< 50 nM,,
COc1cccc2cc(-c3cc(Cl)c([C@]4(C)CS(=O)(=O)C5(CCCCC5)C(=N)N4)s3)[nH]c12 [Example 44],20.2 nM,2 nM,,
C[C@@]1(c2cc([N+](=O)[O-])ccc2F)CS(=O)(=O)C2(CCCC2)C(=N)N1,,734 nM,,44%
COc1cnc(C(=O)Nc2ccc(F)c([C@]3(C)CS(=O)(=O)[C@]4(CCOC4)C(=N)N3)c2)cn1 [Example 62],25.4 nM,< 20 nM,,
C[C@@]1(c2sc(-c3cccc(C#N)c3)cc2Cl)CS(=O)(=O)C2(CCC2)C(=N)N1 [Example 61],35.6 nM,< 20 nM,,
COc1cccc2cc(-c3cc(Cl)c([C@]4(C)CS(=O)(=O)C5(CCOCC5)C(=N)N4)s3)[nH]c12 [Example 48],19.8 nM,2 nM,,
C[C@@]1(c2sc(-c3cncc(C(F)(F)F)c3)cc2Cl)CS(=O)(=O)C2(CCOCC2)C(=N)N1 [Example 54],157 nM,< 50 nM,,
C[C@@]1(c2cc(NC(=O)c3ccc(F)cn3)ccc2F)CS(=O)(=O)C2(CCC2)C(=N)N1 [Example 8],17.1 nM,4.2 nM,,
C[C@@]1(c2sc(Br)cc2Cl)CS(=O)(=O)C2(CCC2)C(=N)N1,1570 nM,531 nM,,
C[C@@]1(c2cc(NC(=O)c3cnc(C(F)(F)F)cn3)ccc2F)CS(=O)(=O)C2(CCCC2)C(=N)N1 [Example 16],13 nM,< 20 nM,,
C[C@@]1(c2cc(NC(=O)c3ccc(Cl)cn3)ccc2F)CS(=O)(=O)C2(CCCCC2)C(=N)N1 [Example 24],,< 20 nM,,
C[C@@]1(c2cc(-c3cncc(Cl)c3)ccc2F)CS(=O)(=O)C2(CCCC2)C(=N)N1 [Example 37],459 nM,,,
